{
  "source": "patent US11357766B2",
  "about": "“Compositions and methods for treating cancer” (Texas Tech University System, priority 2017, dated 2022)",
  "key": {"[1]": {"test_system": "Akt, STAT3 and sonic hedgehog signaling in AsPC1, BxPC3, PANC1, and MIAPaCa2 cells", "assay": "Western blot analysis of whole cell lysates", "format": "cell-based, human", "conditions": "48 hours", "experimental": "Briefly, in FIG. 3A AsPC1 cells, FIG. 3B BxPC3 cells, FIG. 3C PANC1 cells, and FIG. 3D MIAPaCa2 cells, were treated with 5, 7.5 and 10 μM pimavanserin tartrate for 48 hours. Representative blots showing a concentration-dependent effect of pimavamserin tartrate on pAkt(S473), pSTAT3(Y705), c-Myc, Oct-4, SOX-2, NANOG, CD44, GLI1, cleaved caspase3. β-actin was used as a loading control. Figures shown are the representative blots of at least three independent tests.\nWestern blot analysis. AsPC1, BxPC3, PANC1, and MIAPaCa2 cells were treated with varying concentrations of pimavanserin tartrate for 48 hours. After 48 hours, cells were collected and subjected to PBS wash twice. The whole cell lysates were prepared using 4% (w/v) CHAPS in urea-tris buffer. Protein content in the lysates were estimated using Bradford reagent (Bio-rad, California, USA). 40 μg of protein from whole cell lysates were subjected to SDS-PAGE and the resolved proteins were transferred onto PVDF membrane. The membranes were probed for primary antibodies against pSTAT3(Y705), pAkt(S473), β-catenin, c-Myc, OCT4, SOX-2, NANOG, CD44, GLI1, cleaved caspase-3 and β-actin. All primary antibodies were procured from Cell Signaling Technologies (Danvers, Mass.) except β-actin (Sigma Aldrich, St. Louis, Mo.). Dilution factor was 1:1000 for all the antibodies from Cell Signaling and 1:2000 for β-actin antibody. The membranes were developed as described by the present inventors (16).\nInhibition of Akt, STAT3 and sonic hedgehog signaling by pimavanserin. Since significant growth suppressive effects and apoptosis by pimavanserin treatment were observed, the inventors further elucidated the molecular mechanism by which pimavanserin mediates the above-mentioned effects. The inventors performed western blot analysis using whole cell lysates from AsPC1, BxPC3, PANC1, and MIAPaCa2 cells treated with 0, 5, 7.5 and 10 μM pimavanserin for 48 hours. […] Akt and STAT3 signaling modulates OCT-4, SOX-2, NANOG to activate GLI1, a transcription factor involved in sonic hedgehog signaling (7)."}, "[2]": {"test_system": "subcutaneously implanted BxPC3 tumors", "assay": "Pancreatic tumor xenograft model", "format": "in vivo", "conditions": "10 mg/kg oral gavage everyday", "experimental": "Briefly, In FIG. 4A 1×10^6 BxPC3 cells in 1:1 mixture of PBS and matrigel were subcutaneously implanted in the right flank of 4-6 week old female athymic nude mice (n=5). […] The treatment was given till day 40. Values are plotted as mean±SEM. FIG. 4B orthotopic tumors were aseptically removed and the tumor size was compared between control and pimavanserin treated group. In FIG. 4C mice weight was recorded once in 10 days. The average weight of the mice is plotted against days. Values are plotted as mean±SEM.\nPancreatic tumor xenograft model. Female athymic nude mice (4-6 week old) were purchased from Harlan Laboratory (Livermore, Calif.). All the experiments were performed under the strict compliance and regulations approved from Institutional Animal Care and Use Committee (IACUC), Texas Tech University Health Sciences Center, Amarillo, Tex. 1×10^6 BxPC3 cells were implanted in right flank of the mice. […] Group I was assigned as control group, which received the vehicle only (PBS). Group II mice received 10 mg/kg Pimavanserin tartrate by oral gavage everyday. Treatment with Pimavanserin was started at day 13. Tumor growth was monitored by measuring the tumor volume twice a week until day 40 using a Vernier caliper as described by the present inventors (11). The study was terminated at day 40 due to tumor burden. The mice were euthanized and the tumors were aseptically removed. A part of tumor was snap frozen for western blotting and the other part was fixed in formalin for immunohistochemistry and TUNEL analysis. Mice weight was monitored once in ten days.\nPimavanserin suppresses the growth of subcutaneously implanted pancreatic tumors. To examine the in-vivo efficacy of pimavanserin and to establish the mechanism of tumor growth inhibition in pancreatic cancer, BxPC3 cells were implanted subcutaneously in female athymic nude mice. Once the tumor volume reached 70 mm^3 in size, experimental group of mice were treated with 10 mg/kg pimavanserin by oral gavage everyday. […]"}, "[3]": {"test_system": "behavioral activity of mice", "assay": "Mice behavioral analysis (Versamax)", "format": "in vivo", "conditions": "after 67 days of 10 mg/kg; mice bearing orthotopic pancreatic tumors", "experimental": "In orthotopic experiment, behavioral activity was measured using Versamax (Accuscan instruments) after 67 days of oral administration of 10 mg/kg pimavanserin tartrate. The following were measured, in FIG. 6A total distance; FIG. 6B horizontal activity' FIG. 6C vertical activity; and FIG. 6D ambulatory activity. Values are plotted as mean±SEM.\nMice behavioral analysis. In orthotopic studies, the behavioral activity of mice was analyzed after chronic administration of pimavanserin tartrate for […]. The behavioral analysis was performed by Versamax (Accuscan Instruments Inc., Columbus, Ohio, USA) as previously described by the present inventors (7, 12).\nPimavanserin tartrate is an anti-psychotic drug used for the treatment of Parkinson disease. Owing to its action on the central nervous system, the behavioral activity of mice after long-term pimavanserin tartrate administration was assessed. The behavioral activity of mice was monitored after 67 days of 10 mg/kg pimavanserin treatment using Versamax (Accuscan Instruments Inc.)."}, "[4]": {"conditions": "0, 5, 7.5 and 10 μM, all the cell lines tested, concentration dependent"}},
  "data": [
    {"smiles": "CC(C)COc1ccc(CNC(=O)N(Cc2ccc(F)cc2)C2CCN(C)CC2)cc1", "note": "[pimavanserin, N-(4-fluorophenylmethyl)-N-(1-methylpiperidin-4-yl)-N′-(4-(2-methylpropyloxy)phenylmethyl)carbamide]", "values": [
      {"measurement": "expression of GLI1", "setting": "[1]; [4]", "result": "significantly inhibited"},
      {"measurement": "phosphorylation of STAT3 at Tyr705", "setting": "[1]; [4]", "result": "significantly inhibited"},
      {"measurement": "cancer stem cell markers OCT4, SOX-2, NANOG and CD44", "setting": "[1]", "result": "remarkable inhibition"},
      {"measurement": "phosphorylation of Akt at Ser473", "setting": "[1]; AsPC1, BxPC3, and MIAPaCa2 cells", "result": "significantly reduced"},
      {"measurement": "expression of β-catenin", "setting": "[1]; all the cell lines tested", "result": "reduced"},
      {"measurement": "cleavage of caspase 3", "setting": "[1]; pancreatic cancer cells, concentration dependent", "result": "significant cleavage"},
      {"measurement": "average tumor volume at the day of sacrifice", "setting": "[2]; day 40, control group 873.395 mm3", "result": 429.01, "unit": "mm3"},
      {"measurement": "overall weight of mice vs control (general signs of toxicity)", "setting": "[2]; throughout the study", "result": "similar"},
      {"measurement": "suppression of growth of BxPC3 tumors", "setting": "[2]; vs control", "result": 50, "unit": "%"},
      {"measurement": "behavioral activity parameters (total distance, horizontal, vertical and ambulatory activity) vs control", "setting": "[3]", "result": "did not change"}
    ]}
  ]
}
